The results in this text go back to PMC12042122, “The GntR/VanR transcription regulator AlkR represses AlkB2 monooxygenase expression and regulates n‐alkane degradation in Pseudomonas aeruginosa SJTD‐1” (mLife, 2025).

For one experiment, the target named is T1, AlkR (Pseudomonas aeruginosa, UniProt Q9I3I7).
T1 construct: gene PA1526
T1 sequence (Q9I3I7 1-219): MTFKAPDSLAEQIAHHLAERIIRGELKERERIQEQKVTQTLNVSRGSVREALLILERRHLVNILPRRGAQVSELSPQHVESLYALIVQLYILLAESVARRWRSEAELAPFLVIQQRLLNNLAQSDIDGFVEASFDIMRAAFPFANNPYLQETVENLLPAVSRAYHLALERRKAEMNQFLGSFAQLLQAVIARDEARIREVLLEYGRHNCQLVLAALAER
Description: EMSA, release of AlkR from alkB2 promoter DNA. The class given is binding. Conditions: AlkR 5.8 × 10^-7 M, P3 DNA fragment 5 × 10^-7 M, pH 7.5, 37 °C; not an IC50.

The target in experiment [1] is AlkR, GntR/VanR transcription regulator of Pseudomonas aeruginosa SJTD-1 (Pseudomonas aeruginosa SJTD-1). Kind of experiment: cross-linking; purified recombinant AlkR treated with sulfo-EGS, detected by 8% native PAGE.
Experiment [2] shares this target. Description: SEC; size exclusion chromatography of purified recombinant AlkR; conditions not given.

For the molecule `CCCCCCCC/C=C\CCCCCCCC(=O)SCCNC(=O)CCNC(=O)[C@H](O)C(C)(C)COP(=O)(O)OP(=O)(O)OC[C@H]1O[C@@H](n2cnc3c(N)ncnc32)[C@H](O)[C@@H]1OP(=O)(O)O` [C18-CoA, oleyl coenzyme A], the “concentration for effective dissociation of the AlkR/DNA complex” value at AlkR is recorded as ~ 80 μM.
Same read-out and setting: for `CCCCCCCCCCCCCCCC(=O)SCCNC(=O)CCNC(=O)[C@H](O)C(C)(C)COP(=O)(O)OP(=O)(O)OC[C@H]1O[C@@H](n2cnc3c(N)ncnc32)[C@H](O)[C@@H]1OP(=O)(O)O` [C16-CoA, palmitoyl coenzyme A] the value was ~ 150 μM.
For the molecule “AlkR, GntR/VanR transcription regulator of Pseudomonas aeruginosa SJTD-1 (natural protein)”, the stoichiometry N in experiment [1] and in experiment [2] was 2 each time.
